Laboratory results as given in patent publication EP2676962A1, “Derivatives of 1-aminoalkylphosphonate diaryl esters, method of 1-aminoalkylphosphonate diaryl ester derivatives preparation and their application” (priority 2012, dated 2013).
Like-named read-outs stand apart in the source and are kept apart here.

Experiments:
Assay type in all cases: biochemical
[1] = biological target: T1, human neutrophil elastase (HNE) (Homo sapiens, UniProt P08246); assay: Inhibitory activity toward human neutrophil elastase, fluorogenic substrate, microplate reader
T1 sequence (P08246 30-267): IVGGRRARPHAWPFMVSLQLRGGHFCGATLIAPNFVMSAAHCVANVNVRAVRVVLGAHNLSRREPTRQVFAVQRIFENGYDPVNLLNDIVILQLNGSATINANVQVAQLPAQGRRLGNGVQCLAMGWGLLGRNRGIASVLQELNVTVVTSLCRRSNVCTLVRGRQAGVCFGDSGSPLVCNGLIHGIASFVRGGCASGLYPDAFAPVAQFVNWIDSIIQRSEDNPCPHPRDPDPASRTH
Description: (§1) The biological activity of peptidyl derivatives of phosphonic analogs of valine, alanine, phenylalanine, 4-guanidinephenylglycine, leucine, and 1-aminobutyric acid, containing the N-terminal biotin residue were tested for their ability to inhibit proteolytic activity of selected serine proteases, and the control cysteine proteases. All tests were performed using a microplate reader. As enzyme substrates fluorescent peptides were used. The method to measure the activity of the compounds obtained are described below for each of the enzymes tested: human neutrophil elastase (HNE), porcine pancreatic elastase (PPE), subtilisin (Sub), cathepsin G (CatG), proteinase 3 (PR3), chymotrypsin (ChTry) trypsin (Try), papain (Pap) and cathepsin L (CatL). Measurement of the inhibitory activity was performed at different inhibitor concentrations ranging from 12.5 nM to 2000nm.
Measurement of inhibitory activity of compounds toward human neutrophil elastase (HNE).
(§2) The inhibitory activity assay is performed at 37°C in 0,01M HEPES, 0,5M NaCl, 0,03% Triton X-100 buffer, pH 7,5, within 10 min after initial pre-incubation of the enzyme with inhibitor tested at 37°C for 10 min. The enzyme concentration is 0,0025U/ml. Substrate used Me-Suc-Ala-Ala-Pro-Val-AFC at 25µM. Measurement is taken at an excitation wavelength of 400nm and 505nm emission.
(§3) The IC50 value is the concentration of inhibitor required to inhibit half of the enzyme activity after 10 minutes incubation.

[2] = biological target: porcine pancreatic elastase (PPE) (Sus scrofa, UniProt P00772); assay: Inhibitory activity toward porcine pancreatic elastase, fluorogenic substrate, microplate reader
Chain of porcine pancreatic elastase (PPE) (P00772 27-266): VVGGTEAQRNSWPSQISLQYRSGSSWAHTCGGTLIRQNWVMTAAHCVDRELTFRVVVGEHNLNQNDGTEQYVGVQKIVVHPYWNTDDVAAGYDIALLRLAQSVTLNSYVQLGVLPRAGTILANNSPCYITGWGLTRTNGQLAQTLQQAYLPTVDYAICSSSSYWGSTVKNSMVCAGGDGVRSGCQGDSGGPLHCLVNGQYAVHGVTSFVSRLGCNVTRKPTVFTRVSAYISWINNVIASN
Description: as §1
Measurement of inhibitory activity of compounds toward porcine pancreatic elastase (PPE).
(§4) The inhibitory activity assay is performed at 37°C in 0,01M Tris-HCl, 0,05% Triton X-100 buffer, pH 8,5, within 10 min after initial pre-incubation of the enzyme with inhibitor tested at 37°C for 10 min. The enzyme concentration is 60nM. Substrate used Me-Suc-Ala-Ala-Pro-Val-AMC at 100µM. Measurement is taken at an excitation wavelength of 350nm and 460nm emission.
as §3

proteinase 3 (PR3) = biological target: T2, proteinase 3 (PR3) (Homo sapiens, UniProt P24158); assay: Inhibitory activity toward proteinase 3, fluorogenic substrate, microplate reader
T2 sequence (P24158 28-248): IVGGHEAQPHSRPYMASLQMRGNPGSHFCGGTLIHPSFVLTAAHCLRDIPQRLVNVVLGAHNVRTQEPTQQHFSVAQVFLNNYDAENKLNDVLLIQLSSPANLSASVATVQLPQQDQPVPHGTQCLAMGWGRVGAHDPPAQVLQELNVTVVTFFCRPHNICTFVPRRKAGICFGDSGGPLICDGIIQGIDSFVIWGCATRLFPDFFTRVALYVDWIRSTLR
Description: as §1
Measurement of inhibitory activity of compounds toward proteinase 3(PR3).
(§5) The inhibitory activity assay is performed at 37°C in 0,1M Tric-HCl, 0,5M NaCl buffer, pH 7,5, within 10 min after initial pre-incubation of the enzyme with inhibitor tested at 37°C for 10 min. The enzyme concentration is 17nM. Substrate used Abz-Tyr-Tyr-Abu-Anb-NH2 at 30µM. Measurement is taken at an excitation wavelength of 325nm and 400nm emission.
as §3

cathepsin G (CatG) = biological target: T3, cathepsin G (CatG) (Homo sapiens, UniProt P08311); assay: Inhibitory activity toward cathepsin G, fluorogenic substrate, microplate reader; settings: read-out: Cat G IC50; 10 min pre-incubation at 37°C, pH 7,5, MCA-Phe-Val-Thr-Gnf-Ser-Trp-Anb-NH2 2.5µM; NI = brak inhibicji (no inhibition)
T3 sequence (P08311 21-244): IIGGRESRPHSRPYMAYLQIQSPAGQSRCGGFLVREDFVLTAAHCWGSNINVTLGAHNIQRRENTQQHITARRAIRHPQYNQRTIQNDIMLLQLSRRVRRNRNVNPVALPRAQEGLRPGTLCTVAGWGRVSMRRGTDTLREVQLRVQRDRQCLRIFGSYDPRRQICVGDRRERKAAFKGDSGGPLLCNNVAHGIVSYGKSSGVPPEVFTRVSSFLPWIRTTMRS
Description: as §1
Measurement of inhibitory activity of compounds toward cathepsin G (CatG).
as §5, with “100nM.” for “17nM.”, “MCA-Phe-Val-Thr-Gnf-Ser-Trp-Anb-NH2” for “Abz-Tyr-Tyr-Abu-Anb-NH2”, “2.5µM.” for “30µM.”
as §3

subtilisin (Sub) [3] = biological target: T4, subtilisin (Sub) (Bacillus licheniformis, UniProt P00780); assay: Inhibitory activity toward subtilisin, fluorogenic substrate, microplate reader
T4 sequence (P00780 106-379): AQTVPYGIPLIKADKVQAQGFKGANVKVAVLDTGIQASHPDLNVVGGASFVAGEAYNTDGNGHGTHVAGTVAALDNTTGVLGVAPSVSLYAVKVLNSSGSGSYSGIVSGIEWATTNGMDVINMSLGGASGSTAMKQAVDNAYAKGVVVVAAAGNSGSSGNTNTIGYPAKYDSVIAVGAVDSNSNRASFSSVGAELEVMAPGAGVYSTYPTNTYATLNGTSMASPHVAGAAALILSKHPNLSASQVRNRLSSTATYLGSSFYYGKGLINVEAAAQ
Description: as §1
Measurement of inhibitory activity of compounds toward subtilisin (Sub).
as §4, with “0,05M” for “0,01M”, “1M NaCl, 0,01%” for “0,05%”, “7,5,” for “8,5,”, “5nM.” for “60nM.”, “Me-Suc-Ala-Ala-Pro-Phe-AMC” for “Me-Suc-Ala-Ala-Pro-Val-AMC”, “5µM.” for “100µM.”
as §3

subtilisin (Sub) [4] = biological target: T4, subtilisin (Sub); assay: as above; settings: 10 min, pH 7.5, read-out: Sub Kobs/[I]
chymotrypsin (ChTry) = chymotrypsin (ChTry) (Bos taurus, UniProt P00766); assay: Inhibitory activity toward chymotrypsin, fluorogenic substrate, microplate reader; settings: 10 min pre-incubation at 37°C, pH 7,5, Suc-Ala-Ala-Pro-Phe-AMC 5µM; NI = brak inhibicji (no inhibition)
Description: as §1
Measurement of inhibitory activity of compounds toward […] (ChyTry).
as §5, with “HEPES,” for “Tric-HCl,”, “3nM.” for “17nM.”, “Suc-Ala-Ala-Pro-Phe-AMC” for “Abz-Tyr-Tyr-Abu-Anb-NH2”, “5µM.” for “30µM.”, “350nm” for “325nm”, “460nm” for “400nm”
as §3

trypsin (Try) = biological target: T5, trypsin (Try) (Bos taurus, UniProt P00760); assay: Inhibitory activity toward trypsin, fluorogenic substrate, microplate reader; settings: 10 min pre-incubation at 37°C, pH 7,5, Cbz-Arg-AFC 100µM; NI = brak inhibicji (no inhibition)
T5 sequence (P00760 24-246): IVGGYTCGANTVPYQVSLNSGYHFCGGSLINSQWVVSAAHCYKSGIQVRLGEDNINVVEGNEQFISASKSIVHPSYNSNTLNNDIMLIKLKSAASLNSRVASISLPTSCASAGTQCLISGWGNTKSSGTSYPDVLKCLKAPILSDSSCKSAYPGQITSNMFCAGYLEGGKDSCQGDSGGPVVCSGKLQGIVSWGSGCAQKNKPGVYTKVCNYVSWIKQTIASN
Description: as §1
Measurement of inhibitory activity of compounds toward trypsin (Try).
as §2, with “0,1M” for “0,01M”, “25nM.” for “0,0025U/ml.”, “Cbz-Arg-AFC” for “Me-Suc-Ala-Ala-Pro-Val-AFC”, “100µM.” for “25µM.”
as §3

Row | SMILES | IC50 ([1]; read-out: HNE IC50, 10 min pre-incubation at 37°C, pH 7,5, Me-Suc-Ala-Ala-Pro-Val-AFC 25µM, NI = brak inhibicji (no inhibition)) [nM] | IC50 ([2]; read-out: PPE IC50, 10 min pre-incubation at 37°C, pH 8,5, Me-Suc-Ala-Ala-Pro-Val-AMC 100µM, NI = brak inhibicji (no inhibition)) [nM] | IC50 (proteinase 3 (PR3); read-out: PR3 IC50, 10 min pre-incubation at 37°C, pH 7,5, Abz-Tyr-Tyr-Abu-Anb-NH2 30µM, NI = brak inhibicji (no inhibition)) [nM] | IC50 (cathepsin G (CatG)) [nM] | IC50 (subtilisin (Sub) [3]) [nM] | kinact/KI (subtilisin (Sub) [4]) [M⁻¹ s⁻¹] | IC50 [1] [nM] | HNE Kobs/[I] ([1]; 10 min pre-incubation at 37°C, pH 7,5, Me-Suc-Ala-Ala-Pro-Val-AFC 25µM, NI = brak inhibicji (no inhibition)) | IC50 [2] [nM] | IC50 (proteinase 3 (PR3)) [nM] | PR3 Kobs/[I] (proteinase 3 (PR3); 10 min pre-incubation at 37°C, pH 7,5, Abz-Tyr-Tyr-Abu-Anb-NH2 30µM, NI = brak inhibicji (no inhibition)) | ChyTr Kobs/[I] (chymotrypsin (ChTry)) | Sub Kobs/[I] (subtilisin (Sub) [3]; 10 min pre-incubation at 37°C, pH 7,5, Me-Suc-Ala-Ala-Pro-Phe-AMC 5µM, NI = brak inhibicji (no inhibition)) | Try Kobs/[I] (trypsin (Try))
1 | CC(C)CC(NC(=O)C1CCCN1C(=O)C(NC(=O)CCCCC1SCC2NC(=O)NC21)C(C)C)P(=O)(Oc1ccccc1)Oc1ccccc1 (stereo not shown) [Compound 7, diphenyl (3-methyl-1-(1-(3-methyl-2-(5-(2-oxohexahydro-1H-thieno[3,4-d]imidazol-4-yl)pentanamido)butanoyl)pyrrolidine-2-carboxamido)butyl)phosphonate] | > 5000 | > 5000 | > 5000 | > 5000 | 76.5 ± 1.65 | 15000 |  |  |  |  |  |  |  | 
2 | CCC(NC(=O)C1CCCN1C(=O)C(NC(=O)CCCCC1SCC2NC(=O)NC21)C(C)C)P(=O)(Oc1ccc(SC)cc1)Oc1ccc(SC)cc1 (stereo not shown) [Compound 13, bis(4-(methylthio)phenyl) (1-(1-(3-methyl-2-(5-(2-oxohexahydro-1H-thieno[3,4-d]imidazol-4-yl)pentanamido)butanoyl)pyrrolidine-2-carboxamido)propyl)phosphonate] |  |  |  | > 5000 | 147 ± 4 |  | 2.75 ± 0.05 | 4.2*10^5 M^-1S^-1 | 23.5 ± 1.95 | 227 ± 17 | 1.0*10^4 M^-1S^-1 | 1.2*10^3 M^-1S^-1 | 7.8*10^3 M^-1S^-1 | 3*10^2 M^-1S^-1
